Measurements reported in patent US10034476B2, “Insecticidal phenyl-or pyridyl-piperdine compounds” (Syngenta Participations AG, priority 2008, dated 2018).

Tests used:
Type in all cases: in vivo
[1] = system: Plutella xylostella; assay: Plutella xylostella (diamond back moth) artificial diet test; details: 144 h, 200 ppm (concentration in well 18 ppm), L2 larvae, 6 days, larval mortality, growth regulation
Description: Plutella xylostella (Diamond Back Moth): 24-well microtiter plate (MTP) with artificial diet was treated with test solutions at an application rate of 200 ppm (concentration in well 18 ppm) by pipetting. After drying, the MTP's were infested with L2 larvae (7-12 per well). After an incubation period of 6 days, samples were checked for larval mortality and growth regulation.

[2] = system: Diabrotica balteata; assay: Diabrotica balteata (corn root worm) artificial diet test; details: 120 h, 200 ppm (concentration in well 18 ppm), L2 larvae, 5 days, larval mortality, growth regulation
Description: Diabrotica Balteata (Corn Root Worm): A 24-well microtiter plate (MTP) with artificial diet was treated with test solutions at an application rate of 200 ppm (concentration in well 18 ppm) by pipetting. After drying, the MTP's were infested with larvae (L2) (6-10 per well). After an incubation period of 5 days, samples were checked for larval mortality, and growth regulation.

[3] = system: Spodoptera littoralis; assay: Spodoptera littoralis (Egyptian cotton leafworm) cotton leaf disc spray test; details: foliar, 72 h, 200 ppm spray on cotton leaf discs, L1 larvae, 3 DAT, mortality, feeding behavior, growth regulation
From the text: Spodoptera littoralis (Egyptian Cotton Leafworm) Cotton leaf discs were placed on agar in a 24-well microtiter plate and sprayed with test solutions at an application rate of 200 ppm. After drying, the leaf discs were infested with 5 L1 larvae. The samples were checked for mortality, feeding behavior, and growth regulation 3 days after treatment (DAT).

[4] = system: Heliothis virescens; assay: Heliothis virescens (tobacco budworm) egg/artificial diet test; details: 96 h, 200 ppm (concentration in well 18 ppm), eggs 0-24 h old on artificial diet, 4 days, egg mortality, larval mortality, growth regulation
Description: Heliothis virescens (Tobacco Budworm): Eggs (0-24 h old) were placed in 24-well microtiter plate on artificial diet and treated with test solutions at an application rate of 200 ppm (concentration in well 18 ppm) by pipetting. After an incubation period of 4 days, samples were checked for egg mortality, larval mortality, and growth regulation.

Measured: pest or weed control at 200 ppm

COc1ccc(NC(=O)c2ccnc(Cl)c2)c(C2CCN(Cc3ccc(-c4ccc(F)cc4)cc3)CC2)n1 [Compound C10, 2-chloro-N-[1′-(4′-fluoro-biphenyl-4-ylmethyl)-6-methoxy-1′,2′,3′,4′,5′,6′-hexahydro-[2,4′]bipyridinyl-3-yl]-isonicotinamide]
≥ 80%: all assays above

O=C(Nc1cc(Cl)c(C2CC2)nc1C1CCN(Cc2ccc(-c3ccc(F)cc3)cc2)CC1)c1ccnc(Cl)c1 [Compound C13, 2-chloro-N-[5-chloro-6-cyclopropyl-1′-(4′-fluoro-biphenyl-4-ylmethyl)-1′,2′,3′,4′,5′,6′-hexahydro-[2,4′]bipyridinyl-3-yl]-isonicotinamide]
≥ 80%: all assays above

O=C(Nc1cc(F)c(F)c(F)c1C1CCN(Cc2ccc(-c3ccc(F)cc3)cc2)CC1)c1ccnc(Cl)c1 [Compound E1, 2-chloro-N-{3,4,5-trifluoro-2-[1-(4′-fluoro-biphenyl-4-ylmethyl)-piperidin-4-yl]-phenyl}-isonicotinamide]
≥ 80%: all assays above

O=C(Nc1c(F)cc(C(F)(F)F)nc1C1CCN(Cc2ccc(-c3ccc(F)cc3)cc2)CC1)c1ccnc(Cl)c1 [Compound C41, 2-chloro-N-{1′-(4′-fluoro-biphenyl-4-ylmethyl)-4-fluoro-6-trifluoromethyl-1′,2′,3′,4′,5′,6′-hexahydro-[2,4′]bipyridinyl-3-yl}-isonicotinamide]
≥ 80%: all assays above

O=C(Nc1cc(C(F)(F)F)c(F)nc1C1CCN(Cc2ccc(-c3ccc(F)cc3)cc2)CC1)c1ccnc(Cl)c1 [Compound C31, 2-chloro-N-{1′-(4′-fluoro-biphenyl-4-ylmethyl)-6-fluoro-5-trifluoromethyl-1′,2′,3′,4′,5′,6′-hexahydro-[2,4′]bipyridinyl-3-yl}-isonicotinamide]
≥ 80%: all assays above

C=Cc1ccc(NC(=O)c2ccnc(Cl)c2)c(C2CCN(Cc3ccc(-c4ccc(F)cc4)cc3)CC2)n1 [Compound C11, 2-chloro-N-[1′-(4′-fluoro-biphenyl-4-ylmethyl)-6-vinyl-1′,2′,3′,4′,5′,6′-hexahydro-[2,4′]bipyridinyl-3-yl]-isonicotinamide]
≥ 80%: all assays above

O=C(Nc1cc(C(F)(F)F)c(Br)nc1C1CCN(Cc2ccc(-c3ccc(F)cc3)cc2)CC1)c1ccnc(Cl)c1 [Compound C15]
≥ 80%: all assays above

O=C(Nc1cc(Br)cnc1C1CCN(Cc2ccc(-c3ccc(F)cc3)cc2)CC1)c1ccnc(Cl)c1 [Compound C23, N-[5-bromo-1′-(4′-fluoro-biphenyl-4-ylmethyl)-1′,2′,3′,4′,5′,6′-hexahydro-[2,4′]bipyridinyl-3-yl]-2-chloro-isonicotinamide]
≥ 80%: all assays above

O=C(Nc1c(C2CCN(Cc3ccc(-c4ccc(F)cc4)cc3)CC2)nc(Cl)c(Cl)c1Cl)c1ccnc(Cl)c1 [Compound C30, 2-chloro-N-{4,5,6-trichloro-1′-(4′-fluoro-biphenyl-4-ylmethyl)-1′,2′,3′,4′,5′,6′-hexahydro-[2,4′]bipyridinyl-3-yl}-isonicotinamide]
≥ 80%: all assays above

O=C(Nc1ccc(C(F)(F)F)cc1C1CCN(Cc2ccc(-c3ccc(Cl)cc3Cl)cc2)CC1)c1ccnc(Cl)c1 [Compound F1]
≥ 80%: all assays above

O=C(Nc1cc(F)c(F)c(F)c1C1CC[N+]([O-])(Cc2ccc(-c3ccc(F)cc3)cc2)CC1)c1ccnc(Cl)c1 (centres unmarked) [Compound G1, 2-chloro-N-{3,4,5-trifluoro-2-[1-(4′-fluoro-biphenyl-4-ylmethyl)-piperidin-4-yl]-phenyl}-isonicotinamide N-oxide]
≥ 80%: all assays above
